Data published in patent US8063039B2, “3-aminopyrrolidone derivatives” (Newron Pharmaceuticals S.p.A., priority 2003, dated 2011).
Where a name gives a salt, the structure may show the parent alone.

melting point: 140.5 to 143.5 °C
SMILES: O=C1NCC[C@@H]1NCc1ccc(OCc2cccc(F)c2)cc1 (as salt: sulfonic acid salt) [Example 1, (S)-3-[4-(3-Fluorobenzyloxy)-benzylamino]-pyrrolidin-2-one]
